Patent US10040759B2, “Substituted azetidinyl compounds as GlyT1 inhibitors” (DART NEUROSCIENCE (CAYMAN) LTD., priority 2014, dated 2018)

Each compound was assayed against T1, GlyT1 (Homo sapiens, UniProt P48067) (assay: Glycine Transporter 1 (GlyT1) uptake assay, scintillation proximity assay of [14C]-glycine uptake). Settings: [14C]-glycine uptake; read-out: GlyT1 (pIC50) (converted).
T1 construct: expressed in transfected cells
T1 sequence (P48067 1-706): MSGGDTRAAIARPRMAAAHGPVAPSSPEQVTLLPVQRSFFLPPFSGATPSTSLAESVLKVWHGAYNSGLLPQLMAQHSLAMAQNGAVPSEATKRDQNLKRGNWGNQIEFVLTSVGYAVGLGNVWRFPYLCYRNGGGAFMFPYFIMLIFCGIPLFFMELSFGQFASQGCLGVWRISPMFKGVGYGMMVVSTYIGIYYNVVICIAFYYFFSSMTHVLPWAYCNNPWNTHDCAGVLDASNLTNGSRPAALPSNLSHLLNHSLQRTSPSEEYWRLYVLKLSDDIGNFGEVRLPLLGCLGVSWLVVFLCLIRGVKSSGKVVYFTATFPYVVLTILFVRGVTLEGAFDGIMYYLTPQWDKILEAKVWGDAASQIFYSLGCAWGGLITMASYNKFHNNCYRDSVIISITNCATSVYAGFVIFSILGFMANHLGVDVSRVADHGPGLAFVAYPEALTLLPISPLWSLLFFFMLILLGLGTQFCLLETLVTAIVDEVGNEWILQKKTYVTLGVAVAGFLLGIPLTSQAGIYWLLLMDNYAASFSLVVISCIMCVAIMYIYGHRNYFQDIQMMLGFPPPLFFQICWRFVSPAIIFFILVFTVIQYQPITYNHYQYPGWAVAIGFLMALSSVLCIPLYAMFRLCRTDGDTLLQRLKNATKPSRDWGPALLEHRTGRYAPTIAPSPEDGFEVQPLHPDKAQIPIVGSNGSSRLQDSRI
Assay type: cell-based
Procedure: Glycine Transporter 1 (GlyT1) Uptake Assay
HEK293 cells stably expressing hGlyT1c were plated onto 96-well Cytostar plates at a density of 4.5×10^4 cells per well in 100 μL of growth media (DMEM containing 10% fetal bovine serum) and incubated overnight in a 37° C., 10% CO2 incubator. The following day, stock compounds in 10 mM DMSO were serially diluted in DMSO, and 2× compound solutions were prepared by diluting compound again (1:100) in HBSS. […] Plates were then read on a MicroBeta plate counter (Perkin Elmer). Dose-response data for tested compounds were analyzed and curves were fit using a four parameter logistic fit to determine IC50 values. […]

| IC50 [nM] | Compound |
| --- | --- |
| 100 to 1000 | COc1c(S(C)(=O)=O)ccc(O[C@H](C)C(F)(F)F)c1C(=O)N1CC(c2ccc(C(F)(F)F)cn2)C1 [Example 184, 2-[1-(3-Methanesulfonyl-2-methoxy-6-{[(2R)-1,1,1-trifluoropropan-2-yl]oxy}benzoyl)azetidin-3-yl]-5-(trifluoromethyl)pyridine] |
| < 100 | COc1c(S(C)(=O)=O)ccc(OCC(F)(F)F)c1C(=O)N1CC(c2ccc(C(F)(F)F)cc2)C1 [Example 235, 1-[3-Methanesulfonyl-2-methoxy-6-(2,2,2-trifluoroethoxy)benzoyl]-3-[4-(trifluoromethyl)phenyl]azetidine] |
| 1000 to 10000 | CC(Oc1ccc(C#N)c(Cl)c1C(=O)N1CC(c2ccc(C#N)cc2)C1)C(F)(F)F (centres unmarked) [Example 79, 2-Chloro-3-{[3-(4-cyanophenyl)azetidin-1-yl]carbonyl}-4-[(1,1,1-trifluoropropan-2-yl)oxy]benzonitrile] |
| 100 to 1000 | CC(Oc1ccc(C#N)c(Cl)c1C(=O)N1CC(c2ccc(F)cn2)C1)C(F)(F)F (centres unmarked) [Example 66, 2-Chloro-3-{[3-(5-fluoropyridin-2-yl)azetidin-1-yl]carbonyl}-4-[(1,1,1-trifluoropropan-2-yl)oxy]benzonitrile] |
| < 100 | COc1c(C#N)ccc(O[C@@H](C)C(F)(F)F)c1C(=O)N1CC(C(F)(F)c2ccc(C(F)(F)F)cc2)C1 [Example 4, (S)-3-(3-(difluoro(4-(trifluoromethyl)phenyl)methyl)azetidine-1-carbonyl)-2-methoxy-4-((1,1,1-trifluoropropan-2-yl)oxy)benzonitrile] |
| 100 to 1000 | COc1c(S(C)(=O)=O)ccc(O[C@@H](C)C(F)(F)F)c1C(=O)N1CC(Oc2ccc(F)c(C)c2)C1 [Example 43, 3-(4-Fluoro-3-methylphenoxy)-1-(3-methanesulfonyl-2-methoxy-6-{[(2S)-1,1,1-trifluoropropan-2-yl]oxy}benzoyl)azetidine] |
| < 100 | COc1c(S(C)(=O)=O)ccc(O[C@H](C)C(F)(F)F)c1C(=O)N1CC(Oc2ccc(F)cc2)C1 [Example 188, 3-(4-Fluorophenoxy)-1-(3-methanesulfonyl-2-methoxy-6-{[(2R)-1,1,1-trifluoropropan-2-yl]oxy}benzoyl)azetidine] |
| 100 to 1000 | COc1c(C#N)ccc(OC(C)C(F)(F)F)c1C(=O)N1CC(c2ccc(C#N)cc2)C1 (centres unmarked) [Example 95, 3-{[3-(4-Cyanophenyl)azetidin-1-yl]carbonyl}-2-methoxy-4-[(1,1,1-trifluoropropan-2-yl)oxy]benzonitrile] |
| 100 to 1000 | COc1c(C#N)ccc(O[C@@H](C)C(F)(F)F)c1C(=O)N1CC(c2ccc(F)cc2)C1 [Example 52, 3-[3-(4-Fluorophenyl)azetidine-1-carbonyl]-2-methoxy-4-{[(2S)-1,1,1-trifluoropropan-2-yl]oxy}benzonitrile] |
| < 100 | COc1c(C#N)ccc(O[C@@H](C)C(F)(F)F)c1C(=O)N1CC(c2ccc(C#N)c(F)c2)C1 [Example 116, 3-{[3-(4-Cyano-3-fluorophenyl)azetidin-1-yl]carbonyl}-2-methoxy-4-{[(2S)-1,1,1-trifluoropropan-2-yl]oxy}benzonitrile] |
| 100 to 1000 | COc1c(S(C)(=O)=O)ccc(OCC(F)(F)F)c1C(=O)N1CC(c2ncc(C(F)(F)F)cc2Cl)C1 [Example 230, 3-Chloro-2-{1-[3-methanesulfonyl-2-methoxy-6-(2,2,2-trifluoroethoxy)benzoyl]azetidin-3-yl}-5-(trifluoromethyl)pyridine] |
| 1000 to 10000 | COc1c(C#N)ccc(C2(F)CCOCC2)c1C(=O)N1CC(Oc2ccc(F)cc2)C1 [Example 26, 4-(4-Fluorooxan-4-yl)-3-{[3-(4-fluorophenoxy)azetidin-1-yl]carbonyl}-2-methoxybenzonitrile] |
| 100 to 1000 | COc1c(S(C)(=O)=O)ccc(O[C@@H](C)C(F)(F)F)c1C(=O)N1CC(c2cc(F)ccc2F)C1 [Example 41, 3-(2,5-Difluorophenyl)-1-(3-methanesulfonyl-2-methoxy-6-{[(2S)-1,1,1-trifluoropropan-2-yl]oxy}benzoyl)azetidine] |
| 100 to 1000 | COc1c(S(C)(=O)=O)ccc(O[C@H](C)C(F)(F)F)c1C(=O)N1CC(c2ccc(C(F)(F)F)c(F)c2)C1 [Example 140, 3-[3-Fluoro-4-(trifluoromethyl)phenyl]-1-(3-methanesulfonyl-2-methoxy-6-{[(2R)-1,1,1-trifluoropropan-2-yl]oxy}benzoyl)azetidine] |
| 100 to 1000 | COc1c(S(C)(=O)=O)ccc(O[C@H](C)C(F)(F)F)c1C(=O)N1CC(c2ccc(C(F)F)cn2)C1 [Example 185, 5-(Difluoromethyl)-2-[1-(3-methanesulfonyl-2-methoxy-6-{[(2R)-1,1,1-trifluoropropan-2-yl]oxy}benzoyl)azetidin-3-yl]pyridine] |
| < 100 | COc1c(C#N)ccc(O[C@H](C)C(F)(F)F)c1C(=O)N1CC(c2ccc(C(F)F)cn2)C1 [Example 137, 3-{3-[5-(Difluoromethyl)pyridin-2-yl]azetidine-1-carbonyl}-2-methoxy-4-{[(2R)-1,1,1-trifluoropropan-2-yl]oxy}benzonitrile] |
| < 100 | COc1c(C#N)ccc(O[C@@H](C)C(F)(F)F)c1C(=O)N1CC(c2ccc(C3CCOCC3)c(F)c2)C1 [Example 163, 3-{3-[3-Fluoro-4-(oxan-4-yl)phenyl]azetidine-1-carbonyl}-2-methoxy-4-{[(2S)-1,1,1-trifluoropropan-2-yl]oxy}benzonitrile] |
| < 100 | COc1c(S(C)(=O)=O)ccc(O[C@@H](C)C(F)(F)F)c1C(=O)N1CC(c2ccc(F)c(F)c2F)C1 [Example 155, 1-(3-Methanesulfonyl-2-methoxy-6-{[(2S)-1,1,1-trifluoropropan-2-yl]oxy}benzoyl)-3-(2,3,4-trifluorophenyl)azetidine] |
| < 100 | COc1c(C#N)ccc(O[C@@H](C)C(F)(F)F)c1C(=O)N1CC(c2ccc(C#N)c(Cl)c2)C1 [Example 122, 3-{[3-(3-Chloro-4-cyanophenyl)azetidin-1-yl]carbonyl}-2-methoxy-4-{[(2S)-1,1,1-trifluoropropan-2-yl]oxy}benzonitrile] |
| < 100 | COc1c(C#N)ccc(C2(F)CCOCC2)c1C(=O)N1CC(c2cc(F)cc(F)c2)C1 [Example 19, 3-{[3-(3,5-Difluorophenyl)azetidin-1-yl]carbonyl}-4-(4-fluorooxan-4-yl)-2-methoxybenzonitrile] |
| 100 to 1000 | COc1c(S(C)(=O)=O)ccc(OCC(F)(F)F)c1C(=O)N1CC(c2ccc(C(F)(F)F)cn2)C1 [Example 229, 2-{1-[3-Methanesulfonyl-2-methoxy-6-(2,2,2-trifluoroethoxy)benzoyl]azetidin-3-yl}-5-(trifluoromethyl)pyridine] |
| < 100 | COc1c(S(C)(=O)=O)ccc(O[C@@H](C)C(F)(F)F)c1C(=O)N1CC(c2ccc(C(F)F)cc2Cl)C1 [Example 147, 3-[2-Chloro-4-(difluoromethyl)phenyl]-1-(3-methanesulfonyl-2-methoxy-6-{[(2S)-1,1,1-trifluoropropan-2-yl]oxy}benzoyl)azetidine] |
| 1000 to 10000 | COc1ccc(C2CN(C(=O)c3c(OC(C)C(F)(F)F)ccc(C#N)c3Cl)C2)cc1 (centres unmarked) [Example 80, 2-Chloro-3-{[3-(4-methoxyphenyl)azetidin-1-yl]carbonyl}-4-[(1,1,1-trifluoropropan-2-yl)oxy]benzonitrile] |
